Experiments:
C57B6/J mice = assay: LPS-induced sepsis survival; type: in vivo, mouse; conditions: LPS 20 mg/kg i.p.; for survival of septic mice: compound 20 mg/kg i.p.
Protocol: UAS03 (Ether) attenuates septic mortality. C57B6/J mice were injected with lipopolysaccharide intra-peritoneally at a septic dose of 20 mg/kg. The treated animals received either Urolithin-A or UAS03 (Ether) at 20 mg/kg intraperitoneal injection.
Preventive and therapeutic effect of UAS03 (Ether) in septic animals. Animals were injected with LPS intraperitoneally at 20 mg/kg dose to induce sepsis. For Ether+LPS group animals were given UAS03 (20 mg/kg; intraperitoneal) 1 hour prior LPS injection. LPS+Ether group received UAS03 1 hour post LPS injection.

HeLa cells = assay: Autophagy induction (RFP-GFP-LC3); type: cell-based; conditions: 2 hours treatment
Protocol: Autophagy induction after compound treatment for 2 hours is assessed by the presence of red and green punctate inside the cells. The HeLa cells were transfected with RFP-GFP-LC3 plasmid 48 hours prior to drug treatments. After drug treatment for 2 hours the cells are fixed and imaged. LC3 is a protein that is expressed on autophagosomes and is seen as green puncta. When the autophagosome and lysosome fuse to form autolysosomes, the acidic pH inside of it causes degradation of GFP protein and only red puncta are visible (FIG. 26).

HT29 or Caco2 cells = assay: Tight junction protein expression (RT PCR, immunoblot, confocal); type: cell-based, human; conditions: 24 h; for tight junction protein levels (Western blots; Cldn4 confocal imaging): HT29 and Caco2, 50 μM
Protocol: Real time PCR: Total RNA was isolated from cells/tissue using Maxwell® 16 LEV simplyRNA tissue kit (Promega) and reverse transcribed with TaqManC Reverse transcription Kit (Applied Biosystems, CA, USA). The transcribed cDNA (after dilution) was mixed with 100 nM gene specific primers (Real time primers LLC) and 1×SYBR green reaction mix (Power SYBR® Green PCR Master Mix; Applied Biosystems, CA, USA). Changes in gene expression was analyzed using CFX96™ Real-Time System (Bio Rad) and fold change in expression was calculated using 2^ΔΔCT method using GAPDH/0-actin as house keeping gene and normalized with untreated control.
Immunoblots (Western blots): The total protein lysates were collected either from colon tissue/cells using radioimmunoprecipitation assay (RIPA) buffer (Sigma-Aldrich, USA) and quantified using BCA protein quantification kit (Thermo Scientific) as per instructional manual. Total protein (20-50 μg) of was resolved on NuPAGE™ 4-12% Bis-Tris gel (Novex Life technologies) and transferred to polyvinylidene difluoride membrane (0.22 μm pore; Millipore, USA). After blocking with 5% (w/v) skim milk powder (containing 1×TBS) for 1 h, the membrane was then incubated with respective antibodies at 4° C. overnight (dilutions of respective antibodies is given in Table A1). Next day, respective secondary antibody conjugated with Horseradish peroxidase were probed and the chemiluminescent substrate was used to detect the protein bands (ImageQuant LAS 4000). Densitometry analysis of bands were done using ImageJ software. Antibodies for Cldn4, Ocln, Cldn1, Cyp1A1, AhR, HO1, NQO1, Keap1, β-actin and Lamin B were purchased from Santa Cruz Biotechnologies (USA) and Nrf2 from Novus Biologicals (USA).
Confocal Imaging: HT29 or CaCo2 or BMDM cells (50,000 cells/well) were plated on to 8-well chambered slides (154534PK; ThermoFisher Scientific) allowed them to grow overnight. The cells were induced with vehicle (0.01% DMSO) or UroA (50 μM) or UAS03 (50 μM) for desired time points and fixed with cold methonol. […]

SMILES	survival of septic mice (C57B6/J mice)	autophagy induction (HeLa cells)	expression of ZO-1 and Ocln1 (real time PCR) (HT29 or Caco2 cells; HT29, 50 μM)	tight junction protein levels (Western blots; Cldn4 confocal imaging) (HT29 or Caco2 cells)	survival, pretreated (1 hour prior LPS) (C57B6/J mice; 20 mg/kg i.p.)	survival, therapeutic group (1 hour post LPS) (C57B6/J mice; 20 mg/kg i.p.)
O=c1oc2cc(O)ccc2c2ccc(O)cc12 [UroA, 3,8-dihydroxy-6H-dibenzo[b,d]pyran-6-one]	20%	induce autophagy	increase in expression	increased levels	–	–
Oc1ccc2c(c1)COc1cc(O)ccc1-2 [UAS03, 6H-benzo[c]chromene-3,8-diol]	90%	induce autophagy	–	increased levels	70%	100%
